# In ChEMBL document CHEMBL5331080, “Discovery of tetrahydrofuranyl spirooxindole-based SMYD3 inhibitors against gastric cancer via inducing lethal autophagy” (Eur J Med Chem, 2023):
# Activity calls are given as the source filed them. No cut-off for these calls is given here.
# Tests used:
# HGC-27 = test: Antiproliferative activity against human HGC-27 cells assessed as inhibition of cell proliferation by MTT assay; assay type: functional, cell-based
# BGC-823 [1] = test: Antiproliferative activity against human BGC-823 cells assessed as inhibition of cell proliferation by MTT assay; assay type: functional, cell-based
# [2] = molecular target: T1, Histone-lysine N-methyltransferase SMYD3 (Homo sapiens) (UniProt Q9H7B4); test: (§1) Inhibition of GST-tagged SMYD3 (unknown origin) using biotinylated MAP3K2 peptide as substrate incubated for 1 hrs by TR-FRET based assay
# T1 sequence (whole entry): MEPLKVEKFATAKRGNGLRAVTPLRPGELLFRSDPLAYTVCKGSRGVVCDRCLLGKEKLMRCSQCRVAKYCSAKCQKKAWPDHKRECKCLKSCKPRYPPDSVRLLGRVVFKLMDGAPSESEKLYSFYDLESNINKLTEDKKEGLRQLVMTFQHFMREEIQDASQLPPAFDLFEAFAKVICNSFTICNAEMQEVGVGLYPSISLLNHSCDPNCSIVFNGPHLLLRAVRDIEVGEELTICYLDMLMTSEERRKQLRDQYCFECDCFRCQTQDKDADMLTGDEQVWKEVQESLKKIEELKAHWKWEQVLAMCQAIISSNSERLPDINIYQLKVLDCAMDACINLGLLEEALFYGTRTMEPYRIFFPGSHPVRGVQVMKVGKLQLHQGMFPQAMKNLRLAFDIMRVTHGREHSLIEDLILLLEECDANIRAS
# Mus musculus [3] = test: Effect on total Akt protein level in Balb/c nude mouse xenografted with human BGC-823 cells at 15 to 30 mg/kg, ip by immunohistochemistry analysis; assay type: functional, organism-based; settings: dose 15-30 mg/kg
# BGC-823 [4] = test: Inhibition of autophagic flux in human BGC-823 cells transfected with Akt1 siRNA assessed as LC3 cleavage incubated for 24 hrs by Western blot analysis; assay type: functional, cell-based
# BGC-823 [5] = test: Inhibition of autophagic flux in human BGC-823 cells transfected with Akt1 siRNA assessed as p62 accumulation incubated for 24 hrs by Western blot analysis; assay type: functional, cell-based
# Mus musculus [6] = test: Effect on total SMYD3 protein level in Balb/c nude mouse xenografted with human BGC-823 cells at 15 to 30 mg/kg, ip by immunohistochemistry analysis; assay type: functional, organism-based; settings: dose 15-30 mg/kg
# BGC-823 [7] = test: Effect on total H3 methylation level in human BGC-823 cells at 1 uM by Western blot analysis; assay type: functional, cell-based
# [8] = Toxicity in Balb/c nude mouse xenografted with human BGC-823 cells assessed as change in main organs morphology at 15 to 30 mg/kg, ip by H&E staining based analysis; assay type: organism-based; settings: in vivo, dose 15-30 mg/kg
# BGC-823 [9] = test: Antitumor activity against human BGC-823 cells xenografted in ip dosed Balb/c nude mouse assessed as suppression of tumor weight; assay type: functional, organism-based; settings: dose 15-30 mg/kg
# BGC-823 [10] = test: Inhibition of autophagic flux in human BGC-823 cells assessed as inhibition of autophagosome-lysosome fusion by measuring suppression of GFP-LC3 and LAMP1 intracellular co-localization incubated for 24 hrs by DAPI staining based immunofluorescence analysis; assay type: functional, cell-based
# [11] = molecular target: T1, Histone-lysine N-methyltransferase SMYD3 (Homo sapiens); test: Inhibition of SMYD3 in human BGC-823 cells assessed as suppression of H3K4 methylation level at 1 uM by Western blot analysis; assay type: cell-based
# BGC-823 [12] = test: Effect on total H3 expression level in human BGC-823 cells at 1 uM by Western blot analysis; assay type: functional, cell-based
# BGC-823 [13] = test: Antitumor activity against human BGC-823 cells xenografted in ip dosed Balb/c nude mouse assessed as suppression of tumor volume; assay type: functional, organism-based; settings: dose 15-30 mg/kg
# BGC-823 [14] = test: Induction of autophagy in human BGC-823 cells transfected with GFP-LC3 assessed as increase in GFP-LC3 fluorescent puncta in the presence of 3-MA by DAPI staining based immunofluorescence analysis; assay type: functional, cell-based
# [15] = molecular target: T1, Histone-lysine N-methyltransferase SMYD3 (Homo sapiens); test: Inhibition of SMYD3 in human BGC-823 cells transfected with SMYD3 siRNA assessed as suppression of H3K4 methylation level by Western blot analysis; assay type: cell-based
# [16] = molecular target: T2, Histone-lysine N-methyltransferase EHMT2 (Homo sapiens) (UniProt Q96KQ7); test: Inhibition of G9a (unknown origin)
# T2 sequence (whole entry): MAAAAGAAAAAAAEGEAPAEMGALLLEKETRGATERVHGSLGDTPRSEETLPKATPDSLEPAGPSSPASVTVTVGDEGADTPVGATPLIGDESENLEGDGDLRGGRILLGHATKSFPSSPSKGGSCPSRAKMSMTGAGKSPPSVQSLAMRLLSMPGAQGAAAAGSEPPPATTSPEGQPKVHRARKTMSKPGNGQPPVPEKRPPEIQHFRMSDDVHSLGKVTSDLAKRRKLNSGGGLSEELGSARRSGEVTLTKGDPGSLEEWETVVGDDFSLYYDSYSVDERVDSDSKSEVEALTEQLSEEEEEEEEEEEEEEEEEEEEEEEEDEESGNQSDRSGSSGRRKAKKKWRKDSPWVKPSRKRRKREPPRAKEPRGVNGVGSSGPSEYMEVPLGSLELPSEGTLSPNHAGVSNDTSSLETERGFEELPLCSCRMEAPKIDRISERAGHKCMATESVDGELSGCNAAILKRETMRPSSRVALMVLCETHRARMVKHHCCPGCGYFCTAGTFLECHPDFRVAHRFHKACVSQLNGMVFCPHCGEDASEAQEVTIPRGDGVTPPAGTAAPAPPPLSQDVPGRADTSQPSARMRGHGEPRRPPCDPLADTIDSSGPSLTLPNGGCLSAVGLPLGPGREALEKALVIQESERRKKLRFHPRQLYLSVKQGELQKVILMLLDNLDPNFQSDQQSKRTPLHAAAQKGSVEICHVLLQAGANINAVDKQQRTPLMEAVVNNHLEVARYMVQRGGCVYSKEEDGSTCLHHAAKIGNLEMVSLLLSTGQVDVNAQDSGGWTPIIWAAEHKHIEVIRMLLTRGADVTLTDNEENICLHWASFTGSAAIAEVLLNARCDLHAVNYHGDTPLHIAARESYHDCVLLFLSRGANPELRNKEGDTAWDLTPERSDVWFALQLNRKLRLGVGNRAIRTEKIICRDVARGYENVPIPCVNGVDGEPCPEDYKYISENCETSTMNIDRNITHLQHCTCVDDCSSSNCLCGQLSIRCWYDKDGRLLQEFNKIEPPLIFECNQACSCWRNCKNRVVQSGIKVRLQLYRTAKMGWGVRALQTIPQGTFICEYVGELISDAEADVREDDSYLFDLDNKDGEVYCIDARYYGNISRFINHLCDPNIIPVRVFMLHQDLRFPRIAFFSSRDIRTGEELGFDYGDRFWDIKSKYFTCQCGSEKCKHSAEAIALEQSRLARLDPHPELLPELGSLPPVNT
# [17] = molecular target: Histone-lysine N-methyltransferase EZH2 (Homo sapiens) (UniProt Q15910); test: Inhibition of EZH2 (unknown origin)
# Histone-lysine N-methyltransferase EZH2 (Homo sapiens), sequence (Q15910 whole entry, looked up): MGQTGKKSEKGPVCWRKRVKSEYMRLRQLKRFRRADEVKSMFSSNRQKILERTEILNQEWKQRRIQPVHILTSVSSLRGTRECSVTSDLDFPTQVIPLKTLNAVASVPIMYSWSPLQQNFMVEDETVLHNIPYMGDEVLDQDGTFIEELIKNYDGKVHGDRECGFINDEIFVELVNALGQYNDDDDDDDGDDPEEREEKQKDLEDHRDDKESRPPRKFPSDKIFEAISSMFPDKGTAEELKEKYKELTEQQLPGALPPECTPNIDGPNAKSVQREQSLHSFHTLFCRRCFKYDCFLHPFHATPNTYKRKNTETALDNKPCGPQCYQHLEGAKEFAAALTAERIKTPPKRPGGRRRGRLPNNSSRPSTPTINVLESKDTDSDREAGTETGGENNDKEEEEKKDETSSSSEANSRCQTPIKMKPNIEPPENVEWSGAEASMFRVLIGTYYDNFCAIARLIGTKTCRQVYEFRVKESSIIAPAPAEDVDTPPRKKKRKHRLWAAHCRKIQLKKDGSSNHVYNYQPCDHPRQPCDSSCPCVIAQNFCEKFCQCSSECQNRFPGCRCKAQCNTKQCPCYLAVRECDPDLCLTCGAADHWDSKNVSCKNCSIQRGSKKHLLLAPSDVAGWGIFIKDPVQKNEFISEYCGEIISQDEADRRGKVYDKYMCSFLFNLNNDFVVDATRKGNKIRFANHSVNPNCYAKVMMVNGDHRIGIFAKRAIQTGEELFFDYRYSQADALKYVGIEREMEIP
# BGC-823 [18] = test: Inhibition of autophagic flux in human BGC-823 cells transfected with Akt1 siRNA assessed as increase in mTOR incubated for 24 hrs by Western blot analysis; assay type: functional, cell-based
# [19] = Toxicity in Balb/c nude mouse xenografted with human BGC-823 cells assessed as change in body weight at 15 to 30 mg/kg, ip; assay type: organism-based; settings: in vivo, dose 15-30 mg/kg
# BGC-823 [20] = test: Antiproliferative activity against human BGC-823 cells xenografted in Balb/c nude mouse assessed as induction of autophagy by measuring increase in LC3-II staining at 15 to 30 mg/kg, ip by immunohistochemistry analysis; assay type: functional, organism-based; settings: dose 15-30 mg/kg
# [21] = molecular target: T1, Histone-lysine N-methyltransferase SMYD3 (Homo sapiens); test: Inhibition of SMYD3 in human BGC-823 cells assessed as translocation of SMYD3 from nucleus to cytoplasm by DAPI staining based analysis; assay type: cell-based
# BGC-823 [22] = test: Induction of autophagy in human BGC-823 cells assessed as autophagic vacuoles by transmission electron microscopic analysis; assay type: functional, cell-based
# [23] = molecular target: T1, Histone-lysine N-methyltransferase SMYD3 (Homo sapiens); test: Inhibition of SMYD3-induced Akt1 lysine methylation in human BGC-823 cells at 1 uM by Western blot analysis; assay type: cell-based
# BGC-823 [24] = test: Induction of autophagy in human BGC-823 cells transfected with GFP-LC3 assessed as increase in GFP-LC3 fluorescent puncta by DAPI staining based immunofluorescence analysis; assay type: functional, cell-based
# [25] = molecular target: N-lysine methyltransferase SMYD2 (Homo sapiens) (UniProt Q9NRG4); test: Inhibition of SMYD2 (unknown origin)
# N-lysine methyltransferase SMYD2 (Homo sapiens), sequence (Q9NRG4 whole entry): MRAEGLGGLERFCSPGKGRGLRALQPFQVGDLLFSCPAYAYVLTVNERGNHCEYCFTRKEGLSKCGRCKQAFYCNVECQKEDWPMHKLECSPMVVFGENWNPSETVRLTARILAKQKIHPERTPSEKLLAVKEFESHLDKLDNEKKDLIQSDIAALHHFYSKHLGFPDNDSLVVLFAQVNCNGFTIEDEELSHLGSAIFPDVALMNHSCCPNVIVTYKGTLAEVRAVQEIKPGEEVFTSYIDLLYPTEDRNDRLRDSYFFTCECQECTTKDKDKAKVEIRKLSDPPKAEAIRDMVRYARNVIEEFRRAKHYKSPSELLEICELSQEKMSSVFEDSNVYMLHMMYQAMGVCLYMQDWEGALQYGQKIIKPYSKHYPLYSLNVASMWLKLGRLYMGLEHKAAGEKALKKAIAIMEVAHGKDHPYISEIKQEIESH
# [26] = molecular target: T3, Histone-lysine N-methyltransferase SMYD3 (Homo sapiens, UniProt Q9H7B4); test: as §1
# T3 sequence (Q9H7B4 whole entry): T1 sequence (whole entry)
# BGC-823 [27] = test: Antitumor activity against human BGC-823 cells xenografted in ip dosed Balb/c nude mouse assessed as suppression of tumor growth; assay type: functional, organism-based; settings: dose 15-30 mg/kg
# BGC-823 [28] = test: Inhibition of autophagic flux in human BGC-823 cells assessed as p62 accumulation incubated for 24 hrs in the presence of 3-MA by Western blot analysis; assay type: functional, cell-based
# BGC-823 [29] = test: Inhibition of autophagic flux in human BGC-823 cells assessed as LC3-II accumulation incubated for 24 hrs in the presence of 3-MA by Western blot analysis; assay type: functional, cell-based
# BGC-823 [30] = test: Antiproliferative activity against human BGC-823 cells xenografted in Balb/c nude mouse assessed as induction of autophagy by measuring increase in p62 staining at 15 to 30 mg/kg, ip by immunohistochemistry analysis; assay type: functional, organism-based; settings: dose 15-30 mg/kg
# BGC-823 [31] = test: Antiproliferative activity against human BGC-823 cells transfected with […] siRNA assessed as reduction in cell viability incubated for 48 hrs by MTT assay; assay type: functional, cell-based
# [32] = molecular target: Histone-lysine N-methyltransferase, H3 lysine-79 specific (Homo sapiens) (UniProt Q8TEK3); test: Inhibition of DOT1L (unknown origin)
# Histone-lysine N-methyltransferase, H3 lysine-79 specific (Homo sapiens), sequence (Q8TEK3 whole entry, looked up): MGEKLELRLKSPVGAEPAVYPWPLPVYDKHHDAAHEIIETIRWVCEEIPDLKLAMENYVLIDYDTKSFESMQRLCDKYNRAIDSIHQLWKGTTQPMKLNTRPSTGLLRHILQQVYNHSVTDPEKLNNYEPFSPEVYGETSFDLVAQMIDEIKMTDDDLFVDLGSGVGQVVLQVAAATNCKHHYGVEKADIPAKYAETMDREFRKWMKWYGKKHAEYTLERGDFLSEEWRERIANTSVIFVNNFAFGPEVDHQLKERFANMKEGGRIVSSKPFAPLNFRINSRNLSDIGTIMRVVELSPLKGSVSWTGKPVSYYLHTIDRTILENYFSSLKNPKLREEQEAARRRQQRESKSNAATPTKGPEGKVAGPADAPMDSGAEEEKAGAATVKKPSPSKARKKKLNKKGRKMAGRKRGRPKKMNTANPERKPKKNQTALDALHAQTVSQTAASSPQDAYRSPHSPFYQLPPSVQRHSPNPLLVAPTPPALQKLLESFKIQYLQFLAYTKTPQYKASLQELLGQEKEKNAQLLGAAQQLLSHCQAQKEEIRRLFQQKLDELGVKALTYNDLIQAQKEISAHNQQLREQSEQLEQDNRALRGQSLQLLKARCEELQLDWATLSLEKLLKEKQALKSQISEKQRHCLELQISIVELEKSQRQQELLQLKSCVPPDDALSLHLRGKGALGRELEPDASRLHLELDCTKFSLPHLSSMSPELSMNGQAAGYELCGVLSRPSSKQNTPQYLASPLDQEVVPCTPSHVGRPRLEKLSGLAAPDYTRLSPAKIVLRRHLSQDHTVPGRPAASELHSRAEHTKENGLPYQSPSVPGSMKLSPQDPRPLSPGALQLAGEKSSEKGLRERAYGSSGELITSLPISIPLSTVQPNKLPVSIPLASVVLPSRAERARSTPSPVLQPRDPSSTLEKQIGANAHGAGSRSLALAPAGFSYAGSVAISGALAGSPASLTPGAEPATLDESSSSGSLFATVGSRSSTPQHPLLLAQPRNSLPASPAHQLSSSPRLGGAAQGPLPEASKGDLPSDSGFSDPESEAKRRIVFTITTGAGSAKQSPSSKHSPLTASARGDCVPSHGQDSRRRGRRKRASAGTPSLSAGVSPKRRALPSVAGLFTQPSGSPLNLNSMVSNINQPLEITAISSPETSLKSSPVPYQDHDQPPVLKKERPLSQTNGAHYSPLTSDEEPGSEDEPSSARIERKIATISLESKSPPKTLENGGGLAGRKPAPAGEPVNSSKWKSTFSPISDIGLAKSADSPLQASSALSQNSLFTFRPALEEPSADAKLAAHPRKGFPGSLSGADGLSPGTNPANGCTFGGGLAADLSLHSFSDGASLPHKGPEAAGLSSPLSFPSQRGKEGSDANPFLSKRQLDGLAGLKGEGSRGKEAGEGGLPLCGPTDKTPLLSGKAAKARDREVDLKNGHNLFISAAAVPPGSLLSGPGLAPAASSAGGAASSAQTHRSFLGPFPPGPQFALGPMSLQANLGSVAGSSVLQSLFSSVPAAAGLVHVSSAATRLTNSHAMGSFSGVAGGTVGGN
# BGC-823 [33] = test: Antiproliferative activity against human BGC-823 cells assessed as reduction in cell viability incubated for 48 hrs in the presence of 3-MA by MTT assay; assay type: functional, cell-based
smiles,measurement,setting,value
O=C1N(Cc2ccccc2)C[C@@H]2[C@@H](c3ccc(Cl)cc3Cl)[C@]3(O[C@]12O)C(=O)Nc1ccccc13,Activity,HGC-27,Active
same,Activity,BGC-823 [1],Active
same,inhibition,[2],Active
COc1ccc([C@@H]2[C@H]3CN(Cc4ccccc4)C(=O)[C@@]3(O)O[C@]23C(=O)Nc2ccccc23)cc1OC,Activity,HGC-27,Active
same,Activity,BGC-823 [1],Active
same,inhibition,[2],Active
O=C1N(Cc2ccccc2)C[C@@H]2[C@@H](c3cccs3)[C@]3(O[C@]12O)C(=O)Nc1ccccc13,Activity,HGC-27,Active
same,Activity,BGC-823 [1],Active
same,inhibition,[2],Active
O=C1N(Cc2ccccc2)C[C@@H]2[C@@H](c3ccc4ccccc4c3)[C@]3(O[C@]12O)C(=O)Nc1ccccc13,Activity,HGC-27,Active
same,Activity,BGC-823 [1],Active
same,inhibition,[2],Active
O=C1N(Cc2ccccc2)C[C@@H]2[C@@H](c3ccc(Br)cc3)[C@]3(O[C@]12O)C(=O)Nc1ccccc13,Activity,Mus musculus [3],inactive
same,inhibition,BGC-823 [4],Active
same,inhibition,BGC-823 [5],Active
same,Activity,Mus musculus [6],inactive
same,Activity,BGC-823 [7],inactive
same,Activity,[8],Non-Toxic
same,Activity,BGC-823 [9],Dose-Dependent Effect
same,inhibition,BGC-823 [10],Active
same,Activity,HGC-27,Active
same,inhibition,[11],Active
same,Activity,BGC-823 [12],inactive
same,Activity,BGC-823 [13],Dose-Dependent Effect
same,IC50,BGC-823 [1],750 nM
same,Activity,BGC-823 [14],inactive
same,inhibition,[15],Active
same,inhibition,[16],inactive
same,inhibition,[17],inactive
same,inhibition,BGC-823 [18],Active
same,Activity,[19],Non-Toxic
same,Activity,BGC-823 [20],Active
same,inhibition,[21],Active
same,Activity,BGC-823 [22],Active
same,inhibition,[23],Active
same,Activity,BGC-823 [24],Active
same,inhibition,[25],inactive
same,IC50,[26],810 nM
same,Activity,BGC-823 [27],Dose-Dependent Effect
same,inhibition,BGC-823 [28],Active
same,inhibition,BGC-823 [29],Active
same,Activity,BGC-823 [30],Active
same,Activity,BGC-823 [31],inactive
same,inhibition,[32],inactive
same,Activity,BGC-823 [33],inactive
Cc1ccc([C@@H]2[C@H]3CN(Cc4ccccc4)C(=O)[C@@]3(O)O[C@]23C(=O)Nc2ccccc23)cc1,Activity,HGC-27,Active
same,Activity,BGC-823 [1],Active
same,inhibition,[2],Active
O=C1N(Cc2ccccc2)C[C@@H]2[C@@H](c3ccc(Cl)cc3)[C@]3(O[C@]12O)C(=O)Nc1ccccc13,Activity,HGC-27,Active
same,Activity,BGC-823 [1],Active
same,inhibition,[2],Active
